# In US20180201592A1, “2-AMINO-1,3,4-THIADIAZINE AND 2-AMINO-1,3,4-OXADIAZINE BASED ANTIFUNGAL AGENTS” (F2G Limited, priority 2015, published 2018):
# Legend:
# Conditions in all cases: banded MIC grade
# [1] = test system: C. parapsilosis; assay: Minimum inhibitory concentration, RPMI medium; type: cell-based
# Outline: (§1)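 Thawed 5 mg/mL DMSO stocks are vortexed, diluted into sterile water and serially halved in water. The MIC test is then run in RPMI 1640 at 35° C for 24-48 hrs. Wells are read at OD 485 nm.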
# [2] = test system: C. tropicalis; assay: Minimum inhibitory concentration, RPMI medium; type: cell-based
# Outline: as §1
# [3] = test system: C. albicans; assay: Minimum inhibitory concentration, RPMI medium; type: cell-based
# Outline: as §1
# [4] = test system: A. fumigatus 210; assay: Minimum inhibitory concentration, YAG medium; type: cell-based, Aspergillus fumigatus
# Outline: (§2)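 Broth microdilution in YAG medium; inoculum 1-2×10^4 cfu/mL; compound 50-0.05 mg/L in doubling steps, from DMSO stock. 24 h, 35° C. Read OD 485 nm; MIC = lowest conc. inhibiting growth >70% vs no-drug control, in mg/L.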
# [5] = test system: Aspergillus terreus; assay: Minimum inhibitory concentration, YAG medium; type: cell-based
# Outline: (§3)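 MIC values (mg/L) were derived from well optical density at 485 nm. Plates with Aspergillus spores and doubling aqueous dilutions of compound (5 mg/mL DMSO stock) had been incubated at 35° C for 24 hrs.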
# [6] = test system: Aspergillus flavus; assay: Minimum inhibitory concentration, YAG medium; type: cell-based
# Outline: as §3
# [7] = test system: Aspergillus niger; assay: Minimum inhibitory concentration, YAG medium; type: cell-based
# Outline: as §3
# [8] = test system: Aspergillus fumigatus; assay: Minimum inhibitory concentration, YAG medium; type: cell-based
# Outline: as §2
# [9] = test system: A. terreus 49; assay: Minimum inhibitory concentration, YAG medium; type: cell-based, Aspergillus terreus
# Outline: as §3
SMILES,"MIC grade, C. PARAPSILOSIS, RPMI media [1]","MIC grade, C. TROPICALIS, RPMI media [2]","MIC grade, C. ALBICANS, RPMI media [3]","MIC grade, A. FUMIGATUS 210, YAG media [4]","MIC grade, A. TERREUS, YAG media [5]","MIC grade, A. FLAVUS, YAG media [6]","MIC grade, A. NIGER, YAG media [7]","MIC grade, A. FUMIGATUS, YAG media [8]","MIC grade, A. TERREUS 49, YAG media [9]"
N#Cc1ccc(C2=NN=C(N)SC2)cc1,1 (1: ≥20 mg/L),1 (1: ≥20 mg/L),1 (1: ≥20 mg/L),2 (2: 1-5 mg/L),2 (2: 1-5 mg/L),2 (2: 1-5 mg/L),2 (2: 1-5 mg/L),1 (1: ≥5 mg/L),2 (2: 1-5 mg/L)
COc1ccc(CCCOCCC2=NN=C(N)SC2)cc1,3 (3: 1-5 mg/L),2 (2: 5-20 mg/L),2 (2: 5-20 mg/L),2 (2: 1-5 mg/L),2 (2: 1-5 mg/L),2 (2: 1-5 mg/L),2 (2: 1-5 mg/L),2 (2: 1-5 mg/L),2 (2: 1-5 mg/L)
COCCCCOCCC1=NN=C(N)SC1,3 (3: 1-5 mg/L),2 (2: 5-20 mg/L),3 (3: 1-5 mg/L),3 (3: 0.2-1 mg/L),3 (3: 0.2-1 mg/L),3 (3: 0.2-1 mg/L),3 (3: 0.2-1 mg/L),3 (3: 0.2-1 mg/L),3 (3: 0.2-1 mg/L)
CCCCc1ccc(COCCC2=NN=C(N)SC2)cc1,2 (2: 5-20 mg/L),2 (2: 5-20 mg/L),2 (2: 5-20 mg/L),1 (1: ≥5 mg/L),3 (3: 0.2-1 mg/L),3 (3: 0.2-1 mg/L),3 (3: 0.2-1 mg/L),1 (1: ≥5 mg/L),2 (2: 1-5 mg/L)
COCCC1=NN=C(N)SC1,2 (2: 5-20 mg/L),1 (1: ≥20 mg/L),1 (1: ≥20 mg/L),2 (2: 1-5 mg/L),3 (3: 0.2-1 mg/L),3 (3: 0.2-1 mg/L),3 (3: 0.2-1 mg/L),3 (3: 0.2-1 mg/L),3 (3: 0.2-1 mg/L)
NC1=NN=C(c2ccccn2)CS1,1 (1: ≥20 mg/L),1 (1: ≥20 mg/L),1 (1: ≥20 mg/L),1 (1: ≥5 mg/L),1 (1: ≥5 mg/L),1 (1: ≥5 mg/L),2 (2: 1-5 mg/L),1 (1: ≥5 mg/L),1 (1: ≥5 mg/L)
NC1=NN=C(c2cccc(Cl)c2)CS1,1 (1: ≥20 mg/L),1 (1: ≥20 mg/L),1 (1: ≥20 mg/L),1 (1: ≥5 mg/L),1 (1: ≥5 mg/L),1 (1: ≥5 mg/L),1 (1: ≥5 mg/L),1 (1: ≥5 mg/L),1 (1: ≥5 mg/L)
COc1cccc(C2=NN=C(N)SC2)c1,1 (1: ≥20 mg/L),1 (1: ≥20 mg/L),1 (1: ≥20 mg/L),1 (1: ≥5 mg/L),1 (1: ≥5 mg/L),1 (1: ≥5 mg/L),1 (1: ≥5 mg/L),1 (1: ≥5 mg/L),1 (1: ≥5 mg/L)
NC1=NN=C(c2ccc(Cl)cc2)CS1,1 (1: ≥20 mg/L),1 (1: ≥20 mg/L),1 (1: ≥20 mg/L),2 (2: 1-5 mg/L),3 (3: 0.2-1 mg/L),3 (3: 0.2-1 mg/L),2 (2: 1-5 mg/L),3 (3: 0.2-1 mg/L),3 (3: 0.2-1 mg/L)
COc1ccc(C2=NN=C(N)SC2)cc1,1 (1: ≥20 mg/L),1 (1: ≥20 mg/L),1 (1: ≥20 mg/L),2 (2: 1-5 mg/L),3 (3: 0.2-1 mg/L),2 (2: 1-5 mg/L),2 (2: 1-5 mg/L),2 (2: 1-5 mg/L),3 (3: 0.2-1 mg/L)
CCCCc1ccc(OCCCCCC2=NN=C(N)SC2)cc1,3 (3: 1-5 mg/L),2 (2: 5-20 mg/L),2 (2: 5-20 mg/L),2 (2: 1-5 mg/L),2 (2: 1-5 mg/L),2 (2: 1-5 mg/L),3 (3: 0.2-1 mg/L),1 (1: ≥5 mg/L),2 (2: 1-5 mg/L)
CCc1ccc(OCCCCCC2=NN=C(N)SC2)cc1,4 (4: <1 mg/L),4 (4: <1 mg/L),4 (4: <1 mg/L),3 (3: 0.2-1 mg/L),4 (4: <0.2 mg/L),4 (4: <0.2 mg/L),4 (4: <0.2 mg/L),3 (3: 0.2-1 mg/L),4 (4: <0.2 mg/L)
Cc1cccc(C2=NN=C(N)SC2)c1,1 (1: ≥20 mg/L),1 (1: ≥20 mg/L),1 (1: ≥20 mg/L),1 (1: ≥5 mg/L),2 (2: 1-5 mg/L),1 (1: ≥5 mg/L),2 (2: 1-5 mg/L),1 (1: ≥5 mg/L),2 (2: 1-5 mg/L)
Cc1ccc(C2=NN=C(N)SC2)cc1,2 (2: 5-20 mg/L),1 (1: ≥20 mg/L),1 (1: ≥20 mg/L),3 (3: 0.2-1 mg/L),2 (2: 1-5 mg/L),3 (3: 0.2-1 mg/L),3 (3: 0.2-1 mg/L),3 (3: 0.2-1 mg/L),3 (3: 0.2-1 mg/L)
CCC(=O)OCC1=NN=C(N)SC1,3 (3: 1-5 mg/L),2 (2: 5-20 mg/L),1 (1: ≥20 mg/L),3 (3: 0.2-1 mg/L),3 (3: 0.2-1 mg/L),3 (3: 0.2-1 mg/L),3 (3: 0.2-1 mg/L),3 (3: 0.2-1 mg/L),3 (3: 0.2-1 mg/L)
NC1=NN=C(CC(=O)OCc2ccccc2)CS1,2 (2: 5-20 mg/L),1 (1: ≥20 mg/L),1 (1: ≥20 mg/L),1 (1: ≥5 mg/L),2 (2: 1-5 mg/L),1 (1: ≥5 mg/L),2 (2: 1-5 mg/L),1 (1: ≥5 mg/L),2 (2: 1-5 mg/L)
CCOC(=O)CC1=NN=C(N)SC1,3 (3: 1-5 mg/L),2 (2: 5-20 mg/L),3 (3: 1-5 mg/L),2 (2: 1-5 mg/L),3 (3: 0.2-1 mg/L),2 (2: 1-5 mg/L),3 (3: 0.2-1 mg/L),2 (2: 1-5 mg/L),3 (3: 0.2-1 mg/L)
COC(=O)CC1=NN=C(N)SC1,2 (2: 5-20 mg/L),1 (1: ≥20 mg/L),1 (1: ≥20 mg/L),2 (2: 1-5 mg/L),2 (2: 1-5 mg/L),2 (2: 1-5 mg/L),2 (2: 1-5 mg/L),2 (2: 1-5 mg/L),2 (2: 1-5 mg/L)
